Key:
[1] = system: primary human hepatocytes; assay: CC20 hepatic nuclei (20% reduction); higher = less toxic
Method: (§1)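 Dose-response of P. vivax liver stages in primary human hepatocytes, with 8 points (10 uM-[…], v1) or 12 points in duplicate (50 uM-280 pM, v2). Read-out is high-content imaging of schizont net growth area, hypnozoite quantity and hepatic nuclei. EC50 and CC20 (20% nuclei loss) were fitted in CDD Vault from the highest-quality independent experiment; toxic-dose bell-shaped points were masked. '>' marks the highest concentration with less than 50% activity, and ND means a non-sigmoidal curve.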

[2] = system: Plasmodium vivax liver stage (primary human hepatocyte culture); assay: maximum inhibition of schizont net growth area; higher = more active
Method: as §1

[3] = system: Plasmodium vivax liver stage (primary human hepatocyte culture)
Method: as §1

[4] = P. vivax isolate: Pv458, hepatocyte lot: UBV, assay mode: Radical Cure, 8-day (treatment from day 5 post-infection)
[5] = P. vivax isolate: Pv922, hepatocyte lot: BGW, assay mode: Radical Cure, 8-day (treatment from day 5 post-infection)
[6] = P. vivax isolate: Pv914, hepatocyte lot: BGW, assay mode: Prophylactic, 6-day
[7] = P. vivax isolate: Pv668, hepatocyte lot: BGW, assay mode: Radical Cure, 8-day (treatment from day 5 post-infection)
[8] = P. vivax isolate: Pv923, hepatocyte lot: BGW, assay mode: Radical Cure, 8-day (treatment from day 5 post-infection)
[9] = P. vivax isolate: Pv590, hepatocyte lot: UBV, assay mode: Radical Cure, 8-day (treatment from day 5 post-infection)
[10] = P. vivax isolate: Pv657, hepatocyte lot: BGW, assay mode: Radical Cure, 8-day (treatment from day 5 post-infection)
[11] = P. vivax isolate: Pv836, hepatocyte lot: BGW, assay mode: Radical Cure, 8-day (treatment from day 5 post-infection)

For `CN1CCN(C(c2cccs2)c2ccc3cccnc3c2O)CC1` (stereo not given), the CC20 hepatic nuclei [1, 4] was over 10 µM, the maximum inhibition [2, 4] was 60.5% and the EC50 hypnozoite quantity [3, 4] was over 10 µM.

`O=C(Nc1cc(C(F)(F)F)cc(C(F)(F)F)c1)Nc1ccc(Cl)c(Cl)c1` showed a CC20 hepatic nuclei [1, 5] of over 5.56 µM, a maximum inhibition [2, 5] of 51.2% and an EC50 hypnozoite quantity [3, 5] of over 50 µM.

In the case of `CCC(C(=O)O)C1OC(C(C)C(O)C(C)C(=O)C(CC)C2OC3(C=CC(O)C4(CCC(C)(C5CCC(O)(CC)C(C)O5)O4)O3)C(C)CC2C)C(C)CC1C` (stereo not given) [Narasin], the CC20 hepatic nuclei [1, 4] is reported as 8.8 µM, the maximum inhibition [2, 4] is reported as 101% and the EC50 hypnozoite quantity [3, 4] is reported as 0.0646 µM. For the same compound, the “EC50 schizont net growth area” value [3, 4] was 0.0075 µM.

`CC[C@H]1OC(=O)[C@H](C)C(=O)[C@H](C)[C@@H](O[C@@H]2O[C@H](C)C[C@H](N(C)C)[C@H]2O)[C@](C)(OCC=Cc2cnc3ccccc3c2)C[C@@H](C)C(=O)[C@H](C)[C@H]2N=C(O)O[C@@]21C` [Cethromycin] gave a CC20 hepatic nuclei [1, 6] of over 10 µM, a maximum inhibition [2, 6] of 63.3% and an EC50 hypnozoite quantity [3, 6] of over 10 µM.

For `Cc1ccc(Nc2nc(-c3ccccn3)cs2)nc1`, the CC20 hepatic nuclei [1, 7] was over 50 µM, the maximum inhibition [2, 7] was 90.9% and the EC50 hypnozoite quantity [3, 7] was 19.9 µM.

`CN1CCN(c2ccc(Nc3c4ccccc4nc4ccccc34)cc2)CC1` gave a CC20 hepatic nuclei [1, 7] of 5.55 µM, a maximum inhibition [2, 7] of 111% and an EC50 hypnozoite quantity [3, 7] of over 50 µM. For the same compound, the “EC50 schizont net growth area” value [3, 7] was 6.04 µM.

For `CN(C)C(=S)NN=C1C(=O)Nc2ccccc21`, the CC20 hepatic nuclei [1, 8] was 40.3 µM, the maximum inhibition [2, 8] was 66.1% and the “EC50 schizont net growth area” value [3, 8] was over 16.7 µM.

With `CN(Cc1cnc2nc(N)nc(N)c2n1)c1ccc(C(=O)N[C@@H](CCC(=O)O)C(=O)O)cc1` (racemic) [Methotrexate (+/-)] the CC20 hepatic nuclei [1, 6] was over 10 µM, the maximum inhibition [2, 6] was 99.1% and the EC50 hypnozoite quantity [3, 6] was over 10 µM. The “EC50 schizont net growth area” value [3, 6] was 0.0428 µM.

`COc1ccc(-c2c(C)nn3c(N)c(C#N)cnc23)cc1OC` showed a CC20 hepatic nuclei [1, 9] of over 50 µM, a maximum inhibition [2, 9] of 95.7% and an EC50 hypnozoite quantity [3, 9] of over 50 µM. For the same compound, the “EC50 schizont net growth area” value [3, 9] was 0.599 µM.

`CC[C@H]1CN2CCc3cc(OC)c(OC)cc3[C@@H]2C[C@@H]1C[C@H]1NCCc2cc(OC)c(OC)cc21` was tested, and the CC20 hepatic nuclei [1, 7] was 2.42 µM, the maximum inhibition [2, 7] was 107% and the EC50 hypnozoite quantity [3, 7] was over 50 µM. The “EC50 schizont net growth area” value [3, 7] was 0.306 µM.

`COc1ccc(-c2cncc3ccc(C(=O)NCCCn4ccnc4)nc23)cc1` gave a CC20 hepatic nuclei [1, 10] of 44.8 µM, a maximum inhibition [2, 10] of 70.8% and an EC50 hypnozoite quantity [3, 10] of over 50 µM. For the same compound, the “EC50 schizont net growth area” value [3, 10] was 26 µM.

Compound `OCc1ccc(-c2cncc(Nc3cccc(Cl)c3)c2)cc1` has a CC20 hepatic nuclei [1, 9] of over 16.7 µM, a maximum inhibition [2, 9] of 94.1% and an EC50 hypnozoite quantity [3, 9] of over 50 µM. For the same compound, the “EC50 schizont net growth area” value [3, 9] was 2.54 µM.

`CCC(C(=O)O)C1CCC(C)C(C(C)C(O)C(C)C(=O)C(CC)C2OC3(C=CC(O)C4(CCC(C)(C5CCC(O)(CC)C(C)O5)O4)O3)C(C)CC2C)O1` (stereo not given) [Salinomycin] was tested, and the CC20 hepatic nuclei [1, 11] was over 10 µM, the maximum inhibition [2, 11] was 102% and the EC50 hypnozoite quantity [3, 11] was 0.112 µM. The “EC50 schizont net growth area” value [3, 11] was 0.0402 µM.

With `CN(C)CCCNc1c2ccccc2nc2ccccc12` the CC20 hepatic nuclei [1, 7] was 5.73 µM, the maximum inhibition [2, 7] was 108% and the EC50 hypnozoite quantity [3, 7] was over 50 µM. For the same compound, the “EC50 schizont net growth area” value [3, 7] was 9.24 µM.

`O=C(Nc1ccc(N2CCNCC2)cc1)c1ccn2ncc(-c3cccc(Cl)c3)c2n1` gave a CC20 hepatic nuclei [1, 8] of over 1.85 µM, a maximum inhibition [2, 8] of 45.8% and an EC50 hypnozoite quantity [3, 8] of over 50 µM. For the same compound, the “EC50 schizont net growth area” value [3, 8] was over 50 µM.

`Oc1c(C(c2ccncc2)N2CCCC2)ccc2cccnc12` (stereo not given) gave a CC20 hepatic nuclei [1, 7] of over 50 µM, a maximum inhibition [2, 7] of 80.2% and an EC50 hypnozoite quantity [3, 7] of over 50 µM.

In the case of `Cn1c(Sc2ncnc3sccc23)nc2ccccc21`, the CC20 hepatic nuclei [1, 11] is reported as 39.4 µM, the maximum inhibition [2, 11] is reported as 97% and the EC50 hypnozoite quantity [3, 11] is reported as over 50 µM. The “EC50 schizont net growth area” value [3, 11] was over 16.7 µM.

`CC[C@H](NC(=O)[C@H](C)NC)C(=O)N1C[C@@H](O)C[C@H]1Cc1c(-c2[nH]c3cc(F)ccc3c2C[C@@H]2C[C@H](O)CN2C(=O)[C@H](CC)NC(=O)[C@H](C)NC)[nH]c2cc(F)ccc12` gave a CC20 hepatic nuclei [1, 7] of over 5.56 µM, a maximum inhibition [2, 7] of 73% and an EC50 hypnozoite quantity [3, 7] of over 50 µM.
